In patent publication US4788206A, “Pentadieneamides” (Hoffmann-La Roche Inc., priority 1987, dated 1988):

Legend:
[1] = biological target: T1, PAF Binding, dog platelets (Canis lupus familiaris, UniProt A0A8I3NSH0); test: PAF Binding Assay (inhibition of 3H-PAF binding to washed dog platelets); details: dog platelets, 3H-PAF, 10 minutes at room temperature; read-out: Inhib of PAF Binding IC50
T1 construct: Washed platelets were prepared by resuspending the platelet pellet once with PBS containing 1 mM EDTA; from tissue; host or cells: washed platelets from dog blood
T1 sequence (A0A8I3NSH0 1-343): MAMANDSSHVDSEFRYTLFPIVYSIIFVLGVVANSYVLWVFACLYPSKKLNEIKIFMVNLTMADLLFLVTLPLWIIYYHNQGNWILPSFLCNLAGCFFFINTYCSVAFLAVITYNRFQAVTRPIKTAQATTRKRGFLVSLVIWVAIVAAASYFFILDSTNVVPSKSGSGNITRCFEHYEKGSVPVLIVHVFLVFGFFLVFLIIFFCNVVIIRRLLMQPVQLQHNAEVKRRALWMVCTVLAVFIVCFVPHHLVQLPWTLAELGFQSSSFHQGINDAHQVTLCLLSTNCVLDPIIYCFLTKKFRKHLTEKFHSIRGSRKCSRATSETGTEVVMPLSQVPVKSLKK
Procedure: The binding assay was done in 400 μl polyethylene microcentrifuge tubes (Beckman) containing 50 μl of an oil mixture of 2 parts Siliconol AR200 (Serva): 1 part Silicone Fluid (Arthur H. Thomas). Buffer, standards, or analogs (150 μl total volume) were added to the tubes. Radiolabelled ^3 H-PAF (50 μl) was then added to the tubes. The reaction was started by the addition of 50 μl of dog platelets (2×10^7 platelets). The tubes were capped, inverted several times to mix, and incubated for 10 minutes at room temperature. The platelets were separated from the incubation mixture by centrifuging 1 minute in a Beckman Microfuge B centrifuge. The tip of the microfuge tube was cut off, and the platelets were washed out of the tip with 200 μl of 50% methanol (Burdick and Jackson). Aquasol (NEN, 10 ml) was added and the radioactivity in the samples was determined using an LS 8100 Beckman liquid scintillation counter linked to a Techtran tape recorder. Data was processed through an in-house computer system. Alternatively, radioactivity was determined using a Searle Mark III liquid scintillation counter linked to a Iso-Data microprocessor.
(b) Preparation of Platelets
Blood was collected from anesthesized or unanesthesized dogs into 50 ml plastic centrifuge tubes containing 3.8% sodium citrate as the anticoagulant (1 volume of citrate/9 volumes of blood). The red cells were removed by centrifugation for 15 minutes at 600 rpm (100-125 g) at room temperature. An aliquot of the supernatant platelet rich plasma (PRP) was saved for cell counting and the remainder was acidified to PH 6.5 with 0.15M citric acid. The platelet pellet was obtained after a 10 minute centrifugation at 2000 rpm (1000 g) at room temperature. Washed platelets were prepared by resuspending the platelet pellet once with PBS containing 1 mM EDTA, centrifuging as noted, and then resuspending the platelets in 0.1% BSA-PBS. An aliquot of the washed platelets was counted. Platelets used for binding assays were diluted to 2×10^7 platelets/assay tube (4×10^8 platelets/ml). Platelet counting was done using a Royco Cell-Crit 921.

[2] = system: PAF-Induced Bronchoconstriction; test: PAF Induced Bronchoconstriction Assay; assay type: in vivo, guinea pig; details: for Percent Inhib. of PAF-Induced Bronchoconstriction, mg/Kg i.v.: i.v. (dose not given), 1 minute pretreatment, PAF 1.0 μg/kg i.v.; for inhibition in vivo at 50 mg/kg: Cavia porcellus, po, 2-hour pretreatment, read-out: Percent Inhib. of PAF-Induced Bronchoconstriction, 50 mg/Kg p.o.
Procedure: PAF Induced Bronchoconstriction Assay
Male animals (Hartlet Strain 400-500 g) were anesthetized with urethane (2 g/kg. i.p.). Each animals' trachea was cannulated and the guinea pigs were repirated using a Harvard small animal rodent respirator (3.0 cc stroke volume, 40 breaths per min.). Tracheal pressure was recorded from a cannula inserted in the trachea and connected to a Statham Pressure Transducer.
The jugular vein was cannulated for administering compounds. Spontaneous breathing was arrested with succinylcholine (1.2 mg/kg. i.v.) administered 2 minutes prior to intravenous injection of platelet activating factor (PAF).
For, the intravenous testing, the guinea pig is given a 5-minute pretreatment with propranolol at a dose of 0.1 mg/kg intravenously. The test compound is administered with a 1 minute pretreatment prior to intravenous challenge with PAF. The animal is than challenged with a 1.0 μg/kg intravenous dose of PAF and the change is tracheal pressure is measured.
For the oral testing, the procedure includes a 2-hour pretreatment period with the test compound administered through an oral gavage tube. Propranolol or succinylcholine and PAF are administered intravenously, and the change in tracheal pressure measured.
The change is tracheal pressure is determined by subtracting the steady state baseline achieved after administration of succinylcholine from the peak bronchoconstriction seen after challenge with PAF. The mean is calculated for each test compound and compared to the mean of the control animals to give the percent inhibition of bronchoconstriction. The standard error is calcuated as the standard error of the mean.

SMILES	IC50 [1] [nM]	Percent Inhib. of PAF-Induced Bronchoconstriction, mg/Kg i.v. [2] [%]	inhibition in vivo at 50 mg/kg ([2]; 50 mg/Kg p.o.) [%]	Percent Inhib. of PAF-Induced Bronchoconstriction, 50 mg/Kg p.o. (8 hr) ([2]; 50 mg/Kg p.o., (8 hr)) [%]
COc1ccc(/C(=C/C=C/C(=O)NCCCCc2cccnc2)c2ccccc2OC)cc1 [(2E,4Z)-5-(2-methoxyphenyl)-5-(4-methoxyphenyl)-N-[4-(3-pyridinyl)butyl]-2,4-pentadienamide]	55	36 ± 6	–	–
CCCCC/C(=C\C=C\C(=O)N[C@H](C)CCCc1cccnc1)c1cccc(F)c1 [[R-(E,E)]-5-(3-fluorophenyl)-N-[1-methyl-4-(3-pyridinyl)butyl]-2,4-decadienamide]	30	93 ± 0.9	–	–
CCCCCCCC/C(=C\C=C\C(=O)N[C@H](C)CCCc1cccnc1)c1ccc(OC)cc1 [[R-(E,E)]-5-(4-methoxyphenyl)-N-[1-methyl-4-(3-pyridinyl)butyl]-2,4-tridecadienamide]	5	98 ± 1	84 ± 8	–
CCCC/C(=C\C=C\C(=O)N[C@H](C)CCCc1cccnc1)c1cccc(OC)c1 [[R-(E,E)]-5-(3-methoxyphenyl)-N-[1-methyl-4-(3-pyridinyl)butyl]-2,4-nonadienamide]	15	91 ± 5	–	–
COc1ccc(/C(C)=C/C=C/C(=O)N[C@H](C)CCCc2cccnc2)cc1 [[R-(E,E)]-5-(4-methoxyphenyl)-N-[1-methyl-4-(3-pyridinyl)butyl]-2,4-hexadienamide]	25	42 ± 16	–	–
COc1ccc(C(=C/C=C/C(=O)N[C@H](C)CCCc2cccnc2)c2ccc(OC)c(OC)c2)cc1OC [[R-(E)]-5,5-bis(3,4-dimethoxyphenyl)-N-[1-methyl-4-(3-pyridinyl)butyl]-2,4-pentadienamide]	50	99 ± 1	66 ± 19	–
COc1ccc(/C(=C\C=C\C(=O)N[C@H](C)CCCc2cccnc2)C2CC2)cc1 [[R-(2E,4Z)]-5-cyclopropyl-5-(4-methoxyphenyl)-N-1-methyl-4-(3-pyridinyl)butyl]-2,4-pentadienamide]	70	85 ± 4	63 ± 19	–
COc1ccccc1C(=C/C=C/C(=O)NCCCCc1cccnc1)c1ccccc1OC [(E)-5,5-bis (2-methoxyphenyl)-N-[4-(3-pyridinyl)butyl]-2,4-pentadienamide]	40	40 ± 2	–	–
CCCCC/C(=C/C=C/C(=O)NCCCCc1cccnc1)c1ccc(OC)cc1 [(2E,4Z)-5-(4-methoxyphenyl)-N-[4-(3-pyridinyl)butyl]-2,4-decadienamide]	40	68 ± 11	–	–
CCCCCCCCCCCC/C(=C\C=C\C(=O)N[C@H](C)CCCc1cccnc1)c1ccc(OC)cc1 [[R-(E,E)]-5-(4-methoxyphenyl)-N-[1-methyl-4-(3-pyridinyl)butyl]-2,4-heptadecadienamide]	45	28 ± 2	–	–
Cc1ccc(C(=C/C=C/C(=O)N[C@H](C)CCCc2cccnc2)c2ccc(C)cc2)cc1 [[R-(E)]-5,5-bis(4-methylphenyl)-N-[1-methyl-4-(3-pyridinyl)butyl]-2,4-pentadienamide]	250	97 ± 3	91 ± 7	14 ± 16
CCCCC/C(=C/C=C/C(=O)N[C@H](C)CCCc1cccnc1)c1cccc(F)c1 [[R-(2E,4Z)]-5-(3-fluorophenyl)-N-[1-methyl-4-(3-pyridinyl)butyl]-2,4-decadienamide]	105	93 ± 1	–	–
CCCCCC/C(=C\C=C\C(=O)N[C@H](C)CCCc1cccnc1)c1ccc(OC)cc1 [[R-(E,E)]-5-(4-methoxyphenyl)-N-[1-methyl-4-(3-pyridinyl)butyl]-2,4-undecadienamide]	9	100 ± 1	96 ± 1	–
COc1ccc(/C(=C/C=C/C(=O)N[C@H](C)CCCc2cccnc2)C2CC2)cc1 [[R-(E,E)]-5-cyclopropyl-5-(4-methoxyphenyl)-N-[1-methyl-4-(3-pyridinyl)butyl]-2,4-pentadienamide]	50	35 ± 5	–	–

Second part, led by results:

IC50 [1] [nM]	SMILES	Percent Inhib. of PAF-Induced Bronchoconstriction, mg/Kg i.v. [2] [%]	inhibition in vivo at 50 mg/kg ([2]; 50 mg/Kg p.o.) [%]	Percent Inhib. of PAF-Induced Bronchoconstriction, 50 mg/Kg p.o. (8 hr) ([2]; 50 mg/Kg p.o., (8 hr)) [%]
> 1000	COc1ccc(C(=C/C=C/C(=O)NC(CCCc2cccnc2)C2CCCC2)c2ccc(OC)cc2)cc1 (racemic) [[R,S-(E)]-N-[1-cyclopentyl-4-(3-pyridinyl)butyl]-5,5-bis-(4-methoxyphenyl)-2,4-pentadienamide]	19 ± 14	–	–
250	COc1ccc(C(=C/C=C/C(=O)Nc2ccc(Cc3cccnc3)cc2)c2ccc(OC)cc2)cc1 [(E)-5,5-bis(4-methoxyphenyl)-N-[4-(3pyridinylmethyl)phenyl]-2,4-pentadienamide]	3 ± 7	–	–
> 1000	CCCC(CCCc1cccnc1)NC(=O)/C=C/C=C(c1ccc(OC)cc1)c1ccc(OC)cc1 (racemic) [[R,S-(E)]-5,5-bis(4-methoxyphenyl)-N-[1-propyl-4-(3-pyridinyl)butyl]-2,4-pentadienamide]	24 ± 13	–	–
60	COc1ccc(C(=C/C=C/C(=O)NC(CCCc2cccnc2)C2CC2)c2ccc(OC)cc2)cc1 (racemic) [[R,S-(E)]-N-[1-cyclopropyl-4-(3-pyridinyl)butyl]-5,5-bis-(4-methoxyphenyl)-2,4-pentadienamide]	98 ± 1	99 ± 0.3	–
30	COc1ccc(C(=C/C=C/C(=O)NC(C)CCCc2cccnc2C)c2ccc(OC)cc2)cc1 (racemic) [[R,S-(E)]-5,5-bis(4-methoxyphenyl)-N-[1-methyl-4-(2-methyl-3-pyridinyl)butyl]-2,4-pentadienamide]	47 ± 10	–	–
90	CCC(CCCc1cccnc1)NC(=O)/C=C/C=C(c1ccc(OC)cc1)c1ccc(OC)cc1 (racemic) [[R,S-(E)]-N-1-ethyl-4-(3-pyridinyl)butyl]-5,5-bis(4-methoxyphenyl)-2,4-pentadienamide]	86 ± 8	99 ± 1	–
25	COc1ccc(C(=C/C=C/C(=O)NCCOCc2cccnc2)c2ccc(OC)cc2)cc1	48 ± 7	–	–
> 1000	COc1ccc(C(=C/C=C/C(=O)NC(CCCc2cccnc2)c2ccc(Br)cc2)c2ccc(OC)cc2)cc1 (racemic) [[R,S-(E)]-N-[1-(4-bromophenyl)-4-(3-pyridinyl)butyl]-5,5-bis(4-methoxyphenyl)2.4-pentadienamide]	6 ± 13	–	–
400	CC[C@@H](CCCc1cccnc1)NC(=O)/C=C/C=C(c1ccc(OC)cc1)c1ccc(OC)cc1 [[S-(E)]-N-[1-ethyl-4-(3-pyridinyl)butyl]-5,5-bis (4-methoxyphenyl)-2,4-pentadienamide]	44 ± 8	–	–
